Molecules are shown by their SMILES.

The first experiment deals with T1, human GPR120 (Homo sapiens, UniProt Q5NUL3).
T1 construct: Flag (DYKDDDDK) (N); host or cells: HEK293 cells co-expressing Gqi5
T1 sequence (Q5NUL3 1-361): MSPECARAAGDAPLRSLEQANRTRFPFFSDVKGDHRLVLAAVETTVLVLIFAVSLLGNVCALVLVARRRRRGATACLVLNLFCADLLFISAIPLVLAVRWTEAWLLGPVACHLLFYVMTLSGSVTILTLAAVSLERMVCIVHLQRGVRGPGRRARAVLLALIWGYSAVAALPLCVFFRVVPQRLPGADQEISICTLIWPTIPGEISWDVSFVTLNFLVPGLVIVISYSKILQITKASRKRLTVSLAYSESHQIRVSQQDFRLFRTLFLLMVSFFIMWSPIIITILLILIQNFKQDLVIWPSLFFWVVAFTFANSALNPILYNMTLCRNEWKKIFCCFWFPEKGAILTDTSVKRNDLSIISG
In words: Intracellular Ca2+ assay (FLIPR Calcium 4, Flexstation) in human GPR120 stable cell line. It is filed as cell-based. To be noted: % activity at 2.5 μM compared to the maximal activity of the compound of Example 25 at 2.5 μM; HEK293 cells co-expressing Gqi5. As to the method:
Human GPR120 stable cell line was purchased from Multispan Inc (26219 Eden Landing Road, Hayward, Calif. 94545). This GPR120 cell line was generated in HEK293 cells co-expressing Gqi5. In this cell line, the Flag epitope tag (DYKDDDDK) was fused to the amino terminus of human GPR120 protein.
The concentration of intracellular Ca^2+ was measured as described below. Human GPR120 cells were plated in 96 well plates (Poly-D-Lysine coated black/clear Plate, Greiner Bio-One) at 70,000 cells per well and cultured overnight in conditions of 37° C. and 5% CO2. A Ca^2+ assay dye stock solution was prepared by adding 10 mL of assay buffer (HBSS/20 mM HEPES, pH 7.4) to FLIPR Calcium 4 Assay Bulk Kit (Molecular Devices). The 10 mL of Ca^2+ assay dye solution was prepared by further diluting 0.5 mL of Ca^2+ assay dye stock solution with 10 mL of assay buffer. The medium of the cells was removed and immediately 100 μL of the Ca^2+ assay dye solution was dispensed into each well followed by incubation at 37° C. and 5% CO2 for 50 minutes to incorporate the Ca^2+ dye into the cells. The cell plate was then placed in the Flexstation (Molecular Devices) for 20 minutes at 37° C. Compounds were dissolved in 100% DMSO and diluted to desired concentrations with assay buffer and placed in the Flexstation simultaneously with the cell plate for 20 minute incubation at 37° C. prior to reading. Fluorescence intensity was measured immediately following compound addition (25 μL/well) on the Flexstation at an excitation wavelength of 485 nm and an emission wavelength of 525 with 515 nm auto cutoff. The resulting increase in fluorescence intensities corresponds to increases in intracellular Ca^2+ levels.
Compounds were dissolved in 100% DMSO to a concentration of 20 mM to provide stock solutions. To determine activity against human GPR120, compounds were added with human GPR120 stably expressing cells (described above), at eight desired concentrations ranging from 0.00001 to 20 μM, in 96 well plates and fluorescence intensities were measured for 90 seconds with 2-second intervals. An EC50 value (concentration of the GPR120 agonist where 50% of the agonist's maximal activity is observed) was calculated using the changes (Max-Min) of fluorescence intensity.
To determine percent activity for a tested compound, the fluorescence intensity value obtained at a particular concentration were compared to the maximal fluorescence intensity value obtained for reference compound GW9508 (4-[[(3-phenoxyphenyl)methyl]amino]benzene propanoic acid; British Journal of Pharmacology 2006 148, 619-628) or the compound of Example 25. When GW9508 was used as the reference compound, the maximal activity of GW9508 at 6.7 μM was designated as 100% activity. When the compound of Example 25 was used as the reference compound, the maximal activity of the compound of Example 25 at 2.5 μM was designated as 100% activity. Typically, the GW9508 activity reached a maximum at a concentration of approximately 6.7 μM and typically the compound of Example 25 reached a maximum activity at approximately 2.5 μM.
As for `CN(C)Cc1cc(OCc2cc(F)cc3c2OC(C)(C)C3)ccc1CCC(=O)O` [Example 122, 3-(2-((dimethylamino)methyl)-4-((5-fluoro-2,2-dimethyl-2,3-dihydrobenzofuran-7-yl)methoxy)phenyl)propanoic acid], the “% Activity (Ex. 25 Reference Compound)” value amounted to 3.58%.
The same measure, in the same setting: for `[2H]C([2H])(Oc1ccc(CCC(=O)O)c(CC)c1F)c1cc(F)cc2c1OC(C)(C)C2` [Example 228, 3-(4-(dideuterio(5-fluoro-2,2-dimethyl-2,3-dihydrobenzofuran-7-yl)methoxy)-3-fluoro-2-ethylphenyl)propanoic acid] the value was 119.11%; for `CC(Cc1cc(F)c(OCc2c(F)c(F)cc3c2OC(C)(C)C3)c(F)c1)C(=O)O` (centres unmarked) [Example 42, 3-(4-((5,6-difluoro-2,2-dimethyl-2,3-dihydrobenzofuran-7-yl)methoxy)-3,5-difluorophenyl)-2-methylpropanoic acid], 140.94%.
The same measure, in the same setting: to `COc1cc(OCc2cc(F)cc3c2OC(C)(C)C3)ccc1CCC(=O)O` [Example 50, 3-(4-((5-fluoro-2,2-dimethyl-2,3-dihydrobenzofuran-7-yl)methoxy)-2-methoxyphenyl)propanoic acid] belongs 129.78%.
Still for that read-out and setting: to `CCOC(Cc1cc(F)c(OCc2cc(F)cc3c2OC(C)(C)C3)c(F)c1)C(=O)O` (centres unmarked) [Example 69, 3-(3,5-difluoro-4-((5-fluoro-2,2-dimethyl-2,3-dihydrobenzofuran-7-yl)methoxy)phenyl)-2-ethoxypropanoic acid] belongs 78.46%.
Consider `CC(C)Oc1ncccc1COc1ccc2c(c1)CCC2CC(=O)O` (centres unmarked) [Example 259, 2-(5-((2-isopropoxypyridin-3-yl)methoxy)-2,3-dihydro-1H-inden-1-yl)acetic acid], for which the “% Activity (Ex. 25 Reference Compound)” value was found to be 118.5%.
With `Cc1cc2cccc(COc3c(F)cc(CC(C)C(=O)O)cc3F)c2s1` (centres unmarked) [Example 151, 3-(3,5-difluoro-4-((2-methylbenzo[b]thiophen-7-yl)methoxy)phenyl)-2-methylpropanoic acid], the “% Activity (Ex. 25 Reference Compound)” value was 117.38%.
As for `CC(=O)Nc1cc(COc2ccc(CC(C)C(=O)O)cc2)c2c(c1)CC(C)(C)O2` (centres unmarked) [Example 123, 3-(4-((5-acetamido-2,2-dimethyl-2,3-dihydrobenzofuran-7-yl)methoxy)phenyl)-2-methylpropanoic acid], the “% Activity (Ex. 25 Reference Compound)” value amounted to 47.01%.
Same read-out and setting: for `CC1(C)Cc2cc(F)cc(COc3ccc(CCC(=O)O)c(Cl)c3)c2O1` [Example 47, 3-(2-chloro-4-((5-fluoro-2,2-dimethyl-2,3-dihydrobenzofuran-7-yl)methoxy)phenyl)propanoic acid] the value was 111.18%.
`CC1(C)Cc2cc(Cl)cc(COc3ccc(C(C)(C)CC(=O)O)cc3)c2O1` [Example 156, 3-(4-((5-chloro-2,2-dimethyl-2,3-dihydrobenzofuran-7-yl)methoxy)phenyl)-3-methylbutanoic acid]: the “% Activity (Ex. 25 Reference Compound)” value was found to be 148.87%.
Same read-out and setting: for `CC1(C)Cc2cc(F)cc(COc3ccc4c(CC(=O)O)coc4c3)c2O1` [Example 262, 2-(6-((5-fluoro-2,2-dimethyl-2,3-dihydrobenzofuran-7-yl)methoxy)benzofuran-3-yl)acetic acid] the value was 137.39%.
In the case of `CC(Cc1ccc(COc2cccc3c2OC(C)(C)C3)c(F)c1)C(=O)O` (centres unmarked) [Example 44, 3-(4-(((2,2-dimethyl-2,3-dihydrobenzofuran-7-yl)oxy)methyl)-3-fluorophenyl)-2-methylpropanoic acid], the “% Activity (Ex. 25 Reference Compound)” value is 157.14%.
Turning to `CC(CC(=O)O)c1cc(F)c(OCc2cc(Cl)cc3c2OC(C)(C)C3)c(F)c1` (centres unmarked) [Example 106, 3-(4-((5-chloro-2,2-dimethyl-2,3-dihydrobenzofuran-7-yl)methoxy)-3,5-difluorophenyl)butanoic acid], the “% Activity (Ex. 25 Reference Compound)” value came to 154.51%.
For the compound `Cc1cc(OCc2cc(F)cc3c2OC(C)(C)C3)c(F)cc1CCC(=O)O` [Example 214, 3-(5-fluoro-4-((5-fluoro-2,2-dimethyl-2,3-dihydrobenzofuran-7-yl)methoxy)-2-methylphenyl)propanoic acid], the “% Activity (Ex. 25 Reference Compound)” value amounted to 143.21%.
The same measure, in the same setting: to `CC1(C)Cc2cc(F)cc(COc3ccc(CC(=O)O)cc3)c2O1` [Example 133, 2-(4-((5-fluoro-2,2-dimethyl-2,3-dihydrobenzofuran-7-yl)methoxy)phenyl)acetic acid] belongs 103.4%; to `COc1cc(CCC(=O)O)ccc1OCc1cc(F)cc2c1OC(C)(C)C2` [Example 173, 3-(4-((5-fluoro-2,2-dimethyl-2,3-dihydrobenzofuran-7-yl)methoxy)-3-methoxyphenyl)propanoic acid], 159.06%.
Same read-out and setting: to `CC1(C)Cc2c(COc3ccc4c(c3)CC[C@@H]4CC(=O)O)cc(F)cc2O1` [Example 188, (R)-2-(5-((6-fluoro-2,2-dimethyl-2,3-dihydrobenzofuran-4-yl)methoxy)-2,3-dihydro-1H-inden-1-yl)acetic acid] belongs 104.04%; to `Cc1c(CCC(=O)O)ccc(OCc2cc(Cl)cc3c2OC(C)(C)C3)c1C` [Example 209, 3-(4-((5-chloro-2,2-dimethyl-2,3-dihydrobenzofuran-7-yl)methoxy)-2,3-dimethylphenyl)propanoic acid], 142.22%; to `CC1(C)Cc2cc(Cl)cc(COc3ccc4c(c3)CC[C@@H]4CC(=O)O)c2O1` [Example 179, (R)-2-(5-((5-chloro-2,2-dimethyl-2,3-dihydrobenzofuran-7-yl)methoxy)-2,3-dihydro-1H-inden-1-yl)acetic acid], 105.44%.
For the compound `CC1(C)Cc2cc(F)cc(COc3ccc4c(CC(=O)O)cc(=O)oc4c3)c2O1` [Example 263, 2-(7-((5-fluoro-2,2-dimethyl-2,3-dihydrobenzofuran-7-yl)methoxy)-2-oxo-2H-chromen-4-yl)acetic acid], the “% Activity (Ex. 25 Reference Compound)” value was 5.98%.
Take `CC(Cc1ccc(OCc2cc(Cl)cc3c2OC(C)(C)C3O)cc1)C(=O)O` (centres unmarked) [Example 130, 3-(4-((5-chloro-3-hydroxy-2,2-dimethyl-2,3-dihydrobenzofuran-7-yl)methoxy)phenyl)-2-methylpropanoic acid]: the “% Activity (Ex. 25 Reference Compound)” value was 103.85%.

Still in this experiment, the particulars now being: human GPR120 stably expressing cells, eight concentrations from 0.00001 to 20 μM.
In the case of `CC1(C)Cc2c(C(F)(F)F)ccc(COc3c(F)cc(C4CC4C(=O)O)cc3F)c2O1` (centres unmarked) [Example 31, 2-(4-((2,2-dimethyl-4-(trifluoromethyl)-2,3-dihydrobenzofuran-7-yl)methoxy)-3,5-difluorophenyl)cyclopropanecarboxylic acid], the EC50 (commonly the concentration giving half of the maximal effect) lay in the range of 1 to 10 µM.
On to `COc1cc(OCc2cc(F)cc3c2OC(C)(C)C3)ccc1CCC(=O)O` [Example 50, 3-(4-((5-fluoro-2,2-dimethyl-2,3-dihydrobenzofuran-7-yl)methoxy)-2-methoxyphenyl)propanoic acid], for which the concentration for a half-maximal effect (EC50) fell in the range of 1 to 10 µM.
On the same count and under the same terms, for `CC1(C)Cc2cc(Cl)cc(COc3ccc(CCC(=O)O)c4c3CCC4)c2O1` [Example 64, 3-(7-((5-chloro-2,2-dimethyl-2,3-dihydrobenzofuran-7-yl)methoxy)-2,3-dihydro-1H-inden-4-yl)propanoic acid] the value was 1 to 10 µM.
On the same count and under the same terms, for `CC1(C)Cc2cc(F)cc(COc3ccc(CCC(=O)O)c(Cl)c3)c2O1` [Example 47, 3-(2-chloro-4-((5-fluoro-2,2-dimethyl-2,3-dihydrobenzofuran-7-yl)methoxy)phenyl)propanoic acid] the value was 1 to 10 µM; for `Cc1cc(OCc2cc(Cl)cc3c2OC(C)(C)C3)ccc1CCC(=O)O` [Example 51, 3-(4-((5-chloro-2,2-dimethyl-2,3-dihydrobenzofuran-7-yl)methoxy)-2-methylphenyl)propanoic acid], 1 to 10 µM.

The values above are taken from US8598374B2, “GPR120 receptor agonists and uses thereof” (Metabolex, Inc, priority 2008, dated 2013).
